What was measured:
[1] = Retention index (RI) measurement by GC/MS; type: physicochemical; conditions: HP-5 MS column (95% dimethylpolysiloxane/5% phenyl-methylpolysiloxane), 1000 ppm in ethanol, n-alkane mixture C6-C35, linear method
Procedure: Menthol (L-Menthol, manufactured by Takasago International Corporation) and cooling sensation agents (the abovementioned COOLACT® 370, COOLACT® 5, COOLACT® 10, COOLACT® 20, Symcool® WS-5, and Symcool® WS-23) were respectively diluted by adding ethanol to obtain diluted solutions of menthol and each cooling sensation agent diluted to 1000 ppm in ethanol.
Gas chromatography with a mass spectrometer (GC/MS) was then performed on the abovementioned diluted solutions thus obtained.
• Apparatus: 7890B/5977B GC/MSD, manufactured by Agilent Technologies GC conditions • Column: HP-5 MS (manufactured by Agilent Technologies) • Inner diameter 0.25 mm×length 30 m, film thickness 0.25 μm • Injection volume: 1 μL • Injection mode: Split (10:1) • Injection port temperature: 270° C. • Septum purge flow: 5 ml/minute • Carrier gas: Helium (He) • Column flow rate: 1 mL/minute (constant flow mode) • Oven temperature: From 40° C. (3 minutes) to 280° C. (20 minutes) at a rate of 4° C./minute • Transfer line temperature: 280° C. MS conditions • Solvent wait time: 4 minutes • Ionization method: Electron impact ionization (EI), 70 eV • Ion source temperature: 230° C. • Quadrupole temperature: 150° C. • Measurement mode: Scan • MS scan range: m/z 26-450 • Threshold: 50 • Sampling rate: 2
The chromatogram retention index (RI) obtained by the abovementioned GC/MS analysis was calculated by the following method.
The RI of menthol or respective cooling agent was calculated by a linear method on the basis of an n-alkane mixture ranging from n-hexane (C6, RI: 600) to n-pentatriacontane (C35, RI: 3500) Note that the n-alkane mixture used in calculating the RI is not limited thereto.

[2] = Storage resistance by GC/MS: residual rate in tobacco filler in an open system; type: physicochemical; conditions: 5,000 ppm in tobacco filler, open system on a tray, 5 days in an incubator, internal standard quinoline
Procedure: Solutions were prepared by dissolving menthol and other cooling agents (the abovementioned COOLACT® 370 and Symcool® WS-23) respectively through addition of ethanol thereto. Each solution thus obtained was added to the tobacco filler portion of a combustion smoking article, using a microsyringe (MS-50, Ito Microsyringe, manufactured by Ito Seisakusho), such that that the content of menthol or other cooling sensation agent was 5,000 ppm relative to the weight of the tobacco, and the samples immediately after addition were considered to be “pre-storage cigarette samples.” Each solution thus obtained was also added to the tobacco filler portion of a heat-not-burn smoking article (a tobacco stick comprising a tobacco filler portion and a filter portion), using the abovementioned microsyringe, such that that the menthol or other cooling sensation agent content was 5,000 ppm relative to the weight of the tobacco therein, and the samples immediately after addition were considered to be “pre-storage tobacco stick samples.” The cigarettes and tobacco sticks injected with menthol or other cooling sensation agent were then placed on a tray (DT-1 disposable tray, manufactured by As One), stored for 5 days in an incubator (SCI-13 compact incubator, manufactured by Shibata), and were respectively considered to be “post-storage cigarette samples” and “post-storage tobacco stick samples.”
In addition, 1.0 g of quinoline was precisely weighed out as an internal standard, and diluted to 1 L with methanol to serve as an extraction solvent.
The pre-storage cigarette samples, pre-storage tobacco stick samples, post-storage cigarette samples, and post-storage tobacco stick samples obtained as described above then underwent the following treatment. • The tobacco filler portion was removed from each sample and placed in a screw tube, and 10 mL of the extraction solvent, prepared as described above, was added. The screw tubes were then shaken at 200 rpm for 20 minutes, and, after having been left to stand overnight, shaken again at 200 rpm for 20 minutes to obtain tobacco filler portion extract samples. The extract samples obtained from the pre-storage cigarette samples, pre-storage tobacco stick samples, post-storage cigarette samples, and post-storage tobacco stick samples were respectively considered to be “pre-storage cigarette extract samples,” “pre-storage tobacco stick extract samples,” “post-storage cigarette extract samples,” and “post-storage tobacco stick extract samples.”
The extract samples thus obtained were each collected using a syringe (25 mL, SS-02SZ, manufactured by Terumo Corporation) and filtered through a filter (0.45 μm, Prem Syringe Filter, RC, manufactured by Agilent Technologies), and the liquids obtained after filtration were respectively considered to be extract samples for pre-storage cigarette analysis, extract samples for pre-storage tobacco stick analysis, extract samples for post-storage cigarette analysis, and extract samples for post-storage tobacco stick analysis.
The target ions and qualifier ions shown below were selected for the respective cooling sensation agents. A target ion and qualifier ion were also selected for quinoline, used as the internal standard. • Menthol (target ion: m/z=95.1, qualifier ion: m/z=71.0, 81.1) • […] (target ion: m/z=114.0, qualifier ion: m/z=57.0, 102.0) • COOLACT® 370 (target ion: m/z=211.2, qualifier ion: m/z=97.0, 168.1) • Quinoline (target ion: m/z=129.1, qualifier ion: m/z=76.0, 102.0)
• Column: HP-5 MS (manufactured by Agilent Technologies), inner diameter 0.25 mm×length 30 m, film thickness 0.25 μm • Injection volume: 1 μL • Injection mode: Split (10:1) • Injection port temperature: 270° C. • Septum purge flow rate: 5 mL/minute • Carrier gas: Helium (He) • Column flow rate: 1 ml/minute (constant flow mode) • Oven: 40° C. (for 3 minutes) to 280° C. (for 10 minutes) at 10° C./minute […]

[3] = Preliminary study of cooling sensation intensity; type: in vivo; conditions: similar contents
Excerpt: Whereas the content of the methyl menthol derivative or cooling agent other than a methyl menthol derivative as a cooling ingredient was 2000 ppm in the abovementioned Examples 1-3 and in Comparative Examples 2 and 4, the content of the cooling ingredient menthol in the abovementioned Comparative Examples 1 and 3 was set to 5,000 ppm, thus adjusting the cooling sensation intensity as much as possible to facilitate comparison, in order to assess cooling sensation intensity in the present sensory evaluation.

[4] = Storage resistance by GC/MS: migration from tobacco filler to filter in a closed system; type: physicochemical; conditions: tobacco sticks, 2,500, 5,000 and 10,000 ppm
Procedure: A solution was prepared by dissolving a methyl menthol derivative (the abovementioned COOLACT® 370) through addition of methanol thereto. The solution thus obtained was added using the microsyringe described above to the tobacco filler of portion of an unheated smoking article (a tobacco stick comprising a tobacco filler portion and a filter portion), using the abovementioned microsyringe, such that the methyl menthol derivative content was 2,500 ppm, 5,000 ppm, or 10,000 ppm relative to the weight of tobacco therein, and the samples immediately after addition were considered to be “pre-storage tobacco stick samples.” Each tobacco stick injected with the methyl menthol derivative was placed in a Lami-Zip bag (AL-5, manufactured by Seisannipponsha), and left in an incubator (an SCI-13 compact incubator, manufactured by Shibata) for 5 days to provide a “post-storage tobacco stick sample.”
The pre-storage and post-storage tobacco stick samples obtained in the abovementioned manner underwent the following processing. • The tobacco filler portion and filter portion were removed from each sample and placed in a separate screw tube, and 10 mL of methanol were added. […]

[5] = cigarettes (combustion smoking articles)
[6] = tobacco sticks (heat-not-burn smoking articles)

Compound	Retention index (RI) [1]	Residual rate [2, 5]	Residual rate [2, 6]	Cooling sensation intensity compared with methyl menthol derivatives and other cooling agents [3]	Migration from tobacco filler portion to filter portion, post-storage ([4]; closed system (Lami-Zip bag), 5 days in an incubator, FIGS. 10-12)	Migration from tobacco filler portion to filter portion, pre-storage ([4]; immediately after addition, GC/MS total ion chromatograms, FIGS. 7-9)
CC(C)[C@@H]1CC[C@@H](C)C[C@H]1OCCO [COOLACT® 5, 2-L-menthoxyethanol]	1414					
CC1CCC(C(C)C)C(OCC(O)CO)C1 [COOLACT® 10, 3-L-menthoxypropane-1,2-diol]	1674					
CC1CCC(C(C)C)C(O)C1 (stereo not shown) [Menthol]	1173	15.9%	10.4%	weaker cooling sensation intensity		
CCOC(=O)CNC(=O)C1CC(C)CCC1C(C)C (stereo not shown) [Symcool® WS-5, ethyl-2-(p-menthane-3-carboxamido)acetate]	1942					
CC(O)CC(=O)O[C@@H]1C[C@H](C)CC[C@H]1C(C)C (stereo partly drawn) [COOLACT® 20, L-menthyl-3-hydroxybutyrate]	1611					
CNC(=O)C(C)(C(C)C)C(C)C [Symcool® WS-23, 2-isopropyl-N,2,3-trimethylbutyramide]	1287	33.5%	50.2%			
CC(C)C1CCC(C)(C)CC1C(=O)NCC(O)c1ccccc1 (stereo not shown) [COOLACT® 370, N-(2-hydroxy-2-phenylethyl)-2-isopropyl-5,5-dimethylcyclohexane-1-carboxamide]	2477	98.5%	100%		had not migrated from the tobacco filler portion to the filter portion	did not migrate from the tobacco filler portion to the filter portion

From patent publication US20260206828A1, “CONSTITUENT MEMBER PERFUMED BY FLAVOR RAW MATERIAL AND SMOKING ARTICLE” (Japan Tobacco Inc., priority 2022, published 2026)
